From ChEMBL document CHEMBL1154244, “Isoflavonoids from Erythrina poeppigiana: evaluation of their binding affinity for the estrogen receptor” (J Nat Prod, 2009)

species on record: Homo sapiens; test: Selectivity ratio of IC50 for human recombinant ERalpha to IC50 for human recombinant ERbeta

SMILES | Ratio IC50
CC(C)=CCc1cc(-c2coc3cc(O)cc(O)c3c2=O)ccc1O | 0.6
CC1(C)C=Cc2c(cc3occ(-c4ccc(O)cc4)c(=O)c3c2O)O1 | 0.7
COc1cc(O)c2c(=O)c(-c3cc4c(cc3O)OC(C)(C)C(O)C4)coc2c1 (stereo not drawn) | 16
COc1ccc2c(c1CC=C(C)C)O[C@H]1c3ccc(O)cc3OC[C@@]21O | 2.2
COc1cc(O)c2c(=O)c(-c3ccc(O)c(CC(O)=C(C)C)c3)coc2c1 | 2.3

More lines, now with the values ahead:

Ratio IC50 | SMILES
36 | CCCc1c(-c2ccc(O)cc2)nn(-c2ccc(O)cc2)c1-c1ccc(O)cc1
0.7 | COc1cc(O)c2c(=O)c(-c3cc(CC=C(C)C)c(O)cc3O)coc2c1
0.6 | CC(C)=CCc1c(O)cc2occ(-c3ccc(O)cc3)c(=O)c2c1O
